From ChEMBL document CHEMBL5649169 (ChemMedChem, 2018)

What was measured:
[1] = target: Malate dehydrogenase, mitochondrial (Homo sapiens) (UniProt P40926)
[2] = target: Actin-related protein 2/3 complex subunit 4 (Homo sapiens) (UniProt P59998)
[3] = target: Small ribosomal subunit protein eS21 (Homo sapiens) (UniProt P63220)
[4] = target: Ribosomal protein eS27-like (Homo sapiens) (UniProt Q71UM5)
[5] = target: Kinetochore-associated protein 1 (Homo sapiens) (UniProt P50748)
[6] = target: 14-3-3 protein theta (Homo sapiens) (UniProt P27348)
[7] = target: CDGSH iron-sulfur domain-containing protein 2 (Homo sapiens) (UniProt Q8N5K1)
[8] = target: Acyl-CoA dehydrogenase family member 10 (Homo sapiens) (UniProt Q6JQN1)
[9] = target: Heat shock cognate 71 kDa protein (Homo sapiens) (UniProt P11142)
[10] = target: Alanine--tRNA ligase, cytoplasmic (Homo sapiens) (UniProt P49588)
[11] = target: Heterogeneous nuclear ribonucleoprotein F (Homo sapiens) (UniProt P52597)
[12] = target: Ras association domain-containing protein 5 (Homo sapiens) (UniProt Q8WWW0)
[13] = target: Nucleoside diphosphate kinase A (Homo sapiens) (UniProt P15531)
[14] = target: Inhibitor of nuclear factor kappa-B kinase subunit epsilon (Homo sapiens) (UniProt Q14164)
[15] = target: Small ribosomal subunit protein uS15 (Homo sapiens) (UniProt P62277)
[16] = target: Transferrin receptor protein 1 (Homo sapiens) (UniProt P02786)
[17] = target: Protein THEM6 (Homo sapiens) (UniProt Q8WUY1)
[18] = target: Serine/threonine-protein kinase MRCK beta (Homo sapiens) (UniProt Q9Y5S2)
[19] = target: Tyrosine-protein kinase SYK (Homo sapiens) (UniProt P43405)
[20] = target: Aminoacyl tRNA synthase complex-interacting multifunctional protein 2 (Homo sapiens) (UniProt Q13155)
[21] = target: F-actin-capping protein subunit alpha-2 (Homo sapiens) (UniProt P47755)
[22] = target: Tyrosine-protein kinase Fer (Homo sapiens) (UniProt P16591)
[23] = target: Serine/threonine-protein kinase Nek1 (Homo sapiens) (UniProt Q96PY6)
[24] = target: Ubiquitin-associated protein 2 (Homo sapiens) (UniProt Q5T6F2)
[25] = target: COP9 signalosome complex subunit 2 (Homo sapiens) (UniProt P61201)
[26] = target: Histone H1.4 (Homo sapiens) (UniProt P10412)
[27] = target: Chromodomain-helicase-DNA-binding protein 4 (Homo sapiens) (UniProt Q14839)
[28] = target: Protein RRP5 homolog (Homo sapiens) (UniProt Q14690)
[29] = target: Ephrin type-B receptor 4 (Homo sapiens) (UniProt P54760)
[30] = target: Serine/threonine-protein kinase mTOR (Homo sapiens) (UniProt P42345)
[31] = target: LIM and SH3 domain protein 1 (Homo sapiens) (UniProt Q14847)
[32] = target: Integrin alpha-6 (Homo sapiens) (UniProt P23229)
[33] = target: Fructosamine-3-kinase (Homo sapiens) (UniProt Q9H479)
[34] = target: Protein kinase C beta type (Homo sapiens) (UniProt P05771)
[35] = target: Very-long-chain 3-oxoacyl-CoA reductase (Homo sapiens) (UniProt Q53GQ0)
[36] = target: Acidic fibroblast growth factor intracellular-binding protein (Homo sapiens) (UniProt O43427)
[37] = target: Cyclin-dependent kinase 12 (Homo sapiens) (UniProt Q9NYV4)
[38] = target: Small ribosomal subunit protein uS19 (Homo sapiens) (UniProt P62841)
[39] = target: Protein disulfide-isomerase A3 (Homo sapiens) (UniProt P30101)
[40] = target: Large ribosomal subunit protein uL4 (Homo sapiens) (UniProt P36578)
[41] = target: General transcription factor II-I (Homo sapiens) (UniProt P78347)
[42] = target: Transmembrane 9 superfamily member 3 (Homo sapiens) (UniProt Q9HD45)
[43] = target: Adenosine 3'-phospho 5'-phosphosulfate transporter 1 (Homo sapiens) (UniProt Q8TB61)
[44] = target: ATP synthase peripheral stalk subunit d, mitochondrial (Homo sapiens) (UniProt O75947)
[45] = target: Serine/threonine-protein kinase N1 (Homo sapiens) (UniProt Q16512)
Note: assay method not described here.

Chain of Acidic fibroblast growth factor intracellular-binding protein (Homo sapiens) (O43427 whole entry): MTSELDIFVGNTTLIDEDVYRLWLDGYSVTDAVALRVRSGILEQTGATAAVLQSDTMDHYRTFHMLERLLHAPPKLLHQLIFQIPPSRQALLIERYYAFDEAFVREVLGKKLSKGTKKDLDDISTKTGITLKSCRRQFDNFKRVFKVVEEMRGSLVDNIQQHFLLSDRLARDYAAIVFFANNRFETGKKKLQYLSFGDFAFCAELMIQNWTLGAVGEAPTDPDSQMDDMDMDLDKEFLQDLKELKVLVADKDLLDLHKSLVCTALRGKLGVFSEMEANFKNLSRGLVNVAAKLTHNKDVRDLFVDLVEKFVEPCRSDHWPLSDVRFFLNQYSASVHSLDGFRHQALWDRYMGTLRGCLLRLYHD
Chain of Kinetochore-associated protein 1 (Homo sapiens) (P50748 whole entry): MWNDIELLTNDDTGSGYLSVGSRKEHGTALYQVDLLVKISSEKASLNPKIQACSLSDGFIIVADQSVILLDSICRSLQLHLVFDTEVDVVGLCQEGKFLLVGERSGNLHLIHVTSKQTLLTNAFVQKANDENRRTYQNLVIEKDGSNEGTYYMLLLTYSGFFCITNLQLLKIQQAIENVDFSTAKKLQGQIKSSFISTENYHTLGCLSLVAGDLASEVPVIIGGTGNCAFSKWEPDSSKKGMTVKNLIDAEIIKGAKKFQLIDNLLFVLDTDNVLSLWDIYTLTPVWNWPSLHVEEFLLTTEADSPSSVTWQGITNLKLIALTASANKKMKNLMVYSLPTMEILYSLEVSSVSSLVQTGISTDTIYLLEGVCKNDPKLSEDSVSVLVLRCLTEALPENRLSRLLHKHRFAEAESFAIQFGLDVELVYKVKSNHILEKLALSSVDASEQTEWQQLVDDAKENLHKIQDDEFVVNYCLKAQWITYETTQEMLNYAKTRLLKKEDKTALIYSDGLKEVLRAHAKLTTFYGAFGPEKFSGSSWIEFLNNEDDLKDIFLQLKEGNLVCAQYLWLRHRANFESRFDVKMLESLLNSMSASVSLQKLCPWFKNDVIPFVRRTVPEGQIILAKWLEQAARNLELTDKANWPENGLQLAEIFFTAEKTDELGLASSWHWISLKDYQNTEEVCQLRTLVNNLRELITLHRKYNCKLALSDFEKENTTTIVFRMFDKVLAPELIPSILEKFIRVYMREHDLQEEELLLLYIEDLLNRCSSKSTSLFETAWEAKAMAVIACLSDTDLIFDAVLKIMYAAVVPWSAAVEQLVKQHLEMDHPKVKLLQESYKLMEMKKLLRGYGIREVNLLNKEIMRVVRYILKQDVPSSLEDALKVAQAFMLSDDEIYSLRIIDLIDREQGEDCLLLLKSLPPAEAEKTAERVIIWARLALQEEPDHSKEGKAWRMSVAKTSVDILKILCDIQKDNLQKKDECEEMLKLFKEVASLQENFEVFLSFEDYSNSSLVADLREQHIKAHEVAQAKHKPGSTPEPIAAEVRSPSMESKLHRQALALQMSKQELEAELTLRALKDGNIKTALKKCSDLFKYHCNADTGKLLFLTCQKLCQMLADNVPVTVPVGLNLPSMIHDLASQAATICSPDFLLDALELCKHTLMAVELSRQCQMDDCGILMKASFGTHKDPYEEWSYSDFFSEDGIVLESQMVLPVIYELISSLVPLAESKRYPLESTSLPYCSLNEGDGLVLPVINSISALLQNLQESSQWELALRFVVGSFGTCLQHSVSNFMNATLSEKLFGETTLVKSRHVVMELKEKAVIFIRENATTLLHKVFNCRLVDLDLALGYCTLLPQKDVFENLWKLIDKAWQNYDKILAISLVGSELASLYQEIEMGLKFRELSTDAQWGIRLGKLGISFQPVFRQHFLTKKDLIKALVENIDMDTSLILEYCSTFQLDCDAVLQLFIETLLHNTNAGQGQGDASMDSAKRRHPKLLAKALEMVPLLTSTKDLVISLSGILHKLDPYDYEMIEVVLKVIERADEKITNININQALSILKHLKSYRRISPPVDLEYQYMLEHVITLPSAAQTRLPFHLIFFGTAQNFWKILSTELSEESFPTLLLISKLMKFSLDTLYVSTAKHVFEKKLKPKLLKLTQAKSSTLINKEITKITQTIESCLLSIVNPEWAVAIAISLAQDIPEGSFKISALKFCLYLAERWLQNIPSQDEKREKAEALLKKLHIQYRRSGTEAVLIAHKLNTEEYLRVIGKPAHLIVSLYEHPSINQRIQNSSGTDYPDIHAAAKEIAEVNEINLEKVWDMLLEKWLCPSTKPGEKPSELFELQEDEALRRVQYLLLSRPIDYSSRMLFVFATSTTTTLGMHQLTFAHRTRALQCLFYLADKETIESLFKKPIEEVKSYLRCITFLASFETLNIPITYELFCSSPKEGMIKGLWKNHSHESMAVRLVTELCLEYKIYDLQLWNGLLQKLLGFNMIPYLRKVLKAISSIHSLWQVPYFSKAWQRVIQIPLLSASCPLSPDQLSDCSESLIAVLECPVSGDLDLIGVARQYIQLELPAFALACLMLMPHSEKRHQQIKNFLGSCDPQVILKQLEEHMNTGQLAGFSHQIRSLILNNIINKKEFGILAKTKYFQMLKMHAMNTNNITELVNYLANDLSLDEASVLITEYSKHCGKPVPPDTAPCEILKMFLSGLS
Chain of Adenosine 3'-phospho 5'-phosphosulfate transporter 1 (Homo sapiens) (Q8TB61 whole entry): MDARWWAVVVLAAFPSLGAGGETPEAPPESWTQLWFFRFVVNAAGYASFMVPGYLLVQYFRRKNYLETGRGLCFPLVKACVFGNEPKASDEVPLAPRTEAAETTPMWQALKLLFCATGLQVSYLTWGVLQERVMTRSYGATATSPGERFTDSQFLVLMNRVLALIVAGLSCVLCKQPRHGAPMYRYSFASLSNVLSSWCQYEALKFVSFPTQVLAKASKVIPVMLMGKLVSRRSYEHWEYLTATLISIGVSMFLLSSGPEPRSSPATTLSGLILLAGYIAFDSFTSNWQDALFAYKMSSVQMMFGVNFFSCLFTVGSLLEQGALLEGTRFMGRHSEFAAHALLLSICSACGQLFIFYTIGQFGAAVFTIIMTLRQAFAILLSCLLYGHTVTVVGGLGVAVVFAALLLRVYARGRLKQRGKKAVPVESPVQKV
Chain of Fructosamine-3-kinase (Homo sapiens) (Q9H479 whole entry): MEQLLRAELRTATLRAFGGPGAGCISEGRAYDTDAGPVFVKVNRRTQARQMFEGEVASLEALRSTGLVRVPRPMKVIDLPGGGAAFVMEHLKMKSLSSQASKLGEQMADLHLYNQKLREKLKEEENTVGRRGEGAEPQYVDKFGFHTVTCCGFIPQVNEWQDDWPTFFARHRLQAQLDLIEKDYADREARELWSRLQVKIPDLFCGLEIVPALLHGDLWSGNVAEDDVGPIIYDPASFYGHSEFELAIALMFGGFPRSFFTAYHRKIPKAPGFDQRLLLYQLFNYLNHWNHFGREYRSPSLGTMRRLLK
Chain of Serine/threonine-protein kinase MRCK beta (Homo sapiens) (Q9Y5S2 whole entry): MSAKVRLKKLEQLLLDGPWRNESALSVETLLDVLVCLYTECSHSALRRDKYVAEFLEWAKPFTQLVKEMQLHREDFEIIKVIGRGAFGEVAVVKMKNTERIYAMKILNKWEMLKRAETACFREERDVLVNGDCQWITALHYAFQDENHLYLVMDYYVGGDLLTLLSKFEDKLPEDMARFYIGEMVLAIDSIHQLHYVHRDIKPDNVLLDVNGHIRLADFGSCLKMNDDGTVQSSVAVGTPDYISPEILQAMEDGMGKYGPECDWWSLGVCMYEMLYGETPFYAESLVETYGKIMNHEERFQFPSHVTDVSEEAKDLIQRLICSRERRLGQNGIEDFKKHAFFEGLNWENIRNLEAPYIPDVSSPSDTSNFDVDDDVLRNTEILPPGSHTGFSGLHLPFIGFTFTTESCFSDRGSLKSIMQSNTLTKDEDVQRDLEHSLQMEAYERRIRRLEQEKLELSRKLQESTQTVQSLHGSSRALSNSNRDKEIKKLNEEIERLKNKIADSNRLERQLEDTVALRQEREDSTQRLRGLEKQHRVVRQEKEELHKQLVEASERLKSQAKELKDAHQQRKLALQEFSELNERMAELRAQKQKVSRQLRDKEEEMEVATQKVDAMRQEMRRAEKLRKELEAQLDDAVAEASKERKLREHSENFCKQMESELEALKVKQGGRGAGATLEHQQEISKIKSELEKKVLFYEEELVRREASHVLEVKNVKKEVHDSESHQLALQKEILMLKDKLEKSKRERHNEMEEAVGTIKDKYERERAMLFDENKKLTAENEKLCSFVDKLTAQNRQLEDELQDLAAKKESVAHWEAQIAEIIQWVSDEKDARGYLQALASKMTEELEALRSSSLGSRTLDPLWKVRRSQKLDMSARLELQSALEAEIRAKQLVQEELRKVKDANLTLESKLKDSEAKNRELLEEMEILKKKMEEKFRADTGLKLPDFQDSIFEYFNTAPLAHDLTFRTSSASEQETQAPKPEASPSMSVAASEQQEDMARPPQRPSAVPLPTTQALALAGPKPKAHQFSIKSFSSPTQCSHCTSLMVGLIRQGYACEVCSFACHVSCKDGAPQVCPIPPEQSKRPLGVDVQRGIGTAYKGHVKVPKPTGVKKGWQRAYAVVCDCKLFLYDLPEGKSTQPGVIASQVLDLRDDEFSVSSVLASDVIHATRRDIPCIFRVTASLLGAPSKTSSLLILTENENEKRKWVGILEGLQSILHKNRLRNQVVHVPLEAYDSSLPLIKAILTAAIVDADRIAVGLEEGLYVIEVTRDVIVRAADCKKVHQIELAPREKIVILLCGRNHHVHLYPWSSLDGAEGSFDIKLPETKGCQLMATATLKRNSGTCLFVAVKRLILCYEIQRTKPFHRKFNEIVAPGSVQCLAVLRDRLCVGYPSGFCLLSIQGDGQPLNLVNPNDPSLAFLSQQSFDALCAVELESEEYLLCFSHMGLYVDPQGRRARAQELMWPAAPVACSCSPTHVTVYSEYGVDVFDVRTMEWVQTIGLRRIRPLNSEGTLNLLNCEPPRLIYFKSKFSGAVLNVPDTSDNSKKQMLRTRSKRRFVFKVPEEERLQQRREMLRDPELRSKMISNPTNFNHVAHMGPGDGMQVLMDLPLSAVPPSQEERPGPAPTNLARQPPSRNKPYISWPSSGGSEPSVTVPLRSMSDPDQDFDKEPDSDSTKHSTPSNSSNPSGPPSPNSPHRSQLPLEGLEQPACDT

With `Cc1ccc(C(=O)Nc2cccc(C(F)(F)F)c2)cc1Nc1nc(-c2cccnc2)nc2c1cnn2C` the ED50 [1] was 19.8 nM, the ED50 [2] was 18900 nM and the ED50 [3] was 60000 nM. The ED50 [4] was 6460 nM, the ED50 [5] was 14000 nM and the ED50 [6] was 21.1 nM. For the same molecule, the ED50 [7] was 3100 nM, the ED50 [8] was 11500 nM and the ED50 [9] was 121 nM. The ED50 [10] was 3.73 nM, the ED50 [11] was 22600 nM and the ED50 [12] was 6410 nM. For the same molecule, the ED50 [13] was 7650 nM, the ED50 [14] was 123 nM and the ED50 [15] was 2210 nM. For the same molecule, the ED50 [16] was 100 nM, the ED50 [17] was 1700 nM and the ED50 [18] was 641 nM. For the same molecule, the ED50 [19] was 3850 nM, the ED50 [20] was 5.34 nM and the ED50 [21] was 3230 nM. It also gave an ED50 [22] of 29.7 nM, an ED50 [23] of 1870 nM and an ED50 [24] of 111000 nM. It also gave an ED50 [25] of 24600 nM, an ED50 [26] of 62900 nM and an ED50 [27] of 1.89 nM. For the same molecule, the ED50 [28] was 33.9 nM, the ED50 [29] was 1400 nM and the ED50 [30] was 11600 nM. The ED50 [31] was 4.67 nM, the ED50 [32] was 16.3 nM and the ED50 [33] was 7310 nM. For the same molecule, the ED50 [34] was 10900 nM, the ED50 [35] was 53.3 nM and the ED50 [36] was 3140 nM. For the same molecule, the ED50 [37] was 1.03 nM, the ED50 [38] was 4040 nM and the ED50 [39] was 3030 nM. For the same molecule, the ED50 [40] was 4730 nM, the ED50 [41] was 2770 nM and the ED50 [42] was 4220 nM. The ED50 [43] was 21.8 nM, the ED50 [44] was 72.7 nM and the ED50 [45] was 626 nM. It also gave an ED50 (Homo sapiens) of 3520 nM.
`Cc1ccc(C(=O)Nc2cccc(C(F)(F)F)c2)cc1Nc1nc(-c2cccnc2)nc2nn(C)cc12` showed an ED50 [1] of 53.3 nM, an ED50 [2] of 15800 nM and an ED50 [3] of 6.83 nM. The ED50 [4] was 4.32 nM, the ED50 [5] was 54.3 nM and the ED50 [6] was 1350 nM. The ED50 [7] was 59.1 nM, the ED50 [8] was 434 nM and the ED50 [9] was 1760 nM. The ED50 [10] was 36500 nM, the ED50 [11] was 349 nM and the ED50 [12] was 4740 nM. For the same molecule, the ED50 [13] was 2020 nM, the ED50 [14] was 9310 nM and the ED50 [15] was 6.57 nM. For the same molecule, the ED50 [16] was 7340 nM, the ED50 [17] was 62.1 nM and the ED50 [18] was 8.92 nM. For the same molecule, the ED50 [19] was 216 nM, the ED50 [20] was 49.5 nM and the ED50 [21] was 2530 nM. The ED50 [22] was 18.9 nM, the ED50 [23] was 0.912 nM and the ED50 [24] was 4500 nM. It also gave an ED50 [25] of 79400 nM, an ED50 [26] of 5190 nM and an ED50 [27] of 615 nM. For the same molecule, the ED50 [28] was 71.7 nM, the ED50 [29] was 2250 nM and the ED50 [30] was 443 nM. The ED50 [31] was 109000 nM, the ED50 [32] was 7190 nM and the ED50 [33] was 291 nM. For the same molecule, the ED50 [34] was 875 nM, the ED50 [35] was 5.39 nM and the ED50 [36] was 30.1 nM. The ED50 [37] was 435 nM, the ED50 [38] was 14.9 nM and the ED50 [39] was 103 nM. For the same molecule, the ED50 [40] was 24900 nM, the ED50 [41] was 94.5 nM and the ED50 [42] was 21.8 nM. For the same molecule, the ED50 [43] was 39200 nM, the ED50 [44] was 55.7 nM and the ED50 [45] was 245 nM. It also gave an ED50 (Homo sapiens) of 43200 nM.
